# pEC50, pIC50: −log10 of the molar value.
# Legend:
# Pim2 kinase = Pim2 kinase (Homo sapiens, UniProt Q9P1W9); test: Pim2 AlphaScreen assay (high ATP)
# [1] = test system: KMS11 (human myeloma cell line); test: Cell proliferation assay (CellTiter-Glo) in KMS11 cells; assay type: cell-based; conditions: KMS-11, 72 h, Table 5, 3 days, read-out: KMS11-luc EC50
# Method: KMS11 (human myeloma cell line), were cultured in IMDM supplemented with 10% FBS, sodium pyruvate and antibiotics. Cells were plated in the same medium at a density of 2000 cells per well into 96 well tissue culture plates, with outside wells vacant, on the day of assay.
# Test compounds supplied in DMSO were diluted into DMSO at 500 times the desired final concentrations before dilution into culture media to 2 times final concentrations.
# After 3 days plates were equilibrated to room temperature and equal volume of CellTiter-Glow Reagent (Promega) was added to the culture wells. The plates were agitated briefly and luminescent signal was measured with luminometer.
# Pim1 kinase = Pim1 kinase (Homo sapiens, UniProt P11309); test: Pim1 AlphaScreen assay (high ATP)
# Sequence of Pim1 kinase (P11309 whole entry): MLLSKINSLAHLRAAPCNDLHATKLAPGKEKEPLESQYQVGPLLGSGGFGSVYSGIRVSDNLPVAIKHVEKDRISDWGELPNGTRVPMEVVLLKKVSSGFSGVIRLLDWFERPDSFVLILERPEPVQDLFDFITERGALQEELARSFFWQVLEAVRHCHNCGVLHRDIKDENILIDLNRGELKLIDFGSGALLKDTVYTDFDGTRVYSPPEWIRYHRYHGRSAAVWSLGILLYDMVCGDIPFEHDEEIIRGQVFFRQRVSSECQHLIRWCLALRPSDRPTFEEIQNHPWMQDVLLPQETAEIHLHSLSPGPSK
# Pim3 kinase = Pim3 kinase (Homo sapiens, UniProt Q86V86); test: Pim3 AlphaScreen assay (high ATP)
# Sequence of Pim2 kinase (Q9P1W9 whole entry): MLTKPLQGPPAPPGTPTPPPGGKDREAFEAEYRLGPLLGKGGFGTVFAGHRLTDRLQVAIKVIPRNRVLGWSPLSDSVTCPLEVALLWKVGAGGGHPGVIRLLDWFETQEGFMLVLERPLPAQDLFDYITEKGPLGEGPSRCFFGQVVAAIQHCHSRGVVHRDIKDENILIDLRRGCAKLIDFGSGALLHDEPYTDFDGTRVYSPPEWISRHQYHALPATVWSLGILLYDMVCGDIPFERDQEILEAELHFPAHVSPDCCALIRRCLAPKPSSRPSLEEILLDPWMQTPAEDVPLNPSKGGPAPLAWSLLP
SMILES,pIC50 (Pim2 kinase),pEC50 [1],pIC50 (Pim1 kinase),pIC50 (Pim3 kinase)
"Cc1cc(F)c(-c2nc(C(=O)Nc3cnccc3[C@H]3C[C@@H](C)[C@](C)(O)[C@@H](N)C3)ccc2F)c(F)c1 [Example 14, N-(4-((1S,3S,4S,5R)-3-amino-4-hydroxy-4,5-dimethyl-cyclohexyl)pyridin-3-yl)-6-(2,6-difluoro-4-methylphenyl)-5-fluoropicolinamide]",6.11,5.30,7.86,6.64
"COc1cc(F)c(-c2nc(C(=O)Nc3cnccc3[C@H]3C[C@@H](C)[C@](C)(O)[C@@H](N)C3)ccc2F)c(F)c1 [Example 16, N-(4-((1S,3S,4S,5R)-3-amino-4-hydroxy-4,5-dimethylcyclohexyl)pyridin-3-yl)-6-(2,6-difluoro-4-methoxyphenyl)-5-fluoropicolinamide]",6.11,,8.37,7.14
"CC[C@]1(O)[C@H](C)C[C@H](c2ccncc2NC(=O)c2ccc(F)c(-c3c(F)cccc3F)n2)C[C@@H]1N [Example 12, N-(4-((1S,3S,4S,5R)-3-amino-4-ethyl-4-hydroxy-5-methylcyclohexyl)pyridin-3-yl)-6-(2,6-difluorophenyl)-5-fluoropicolinamide]",5.84,,7.58,6.52
"C[C@H]1C[C@@H](c2ccncc2NC(=O)c2ccc(F)c(-c3c(F)cc(C4(O)CCOCC4)cc3F)n2)C[C@@H](O)[C@]1(C)O [Example 110, 6-(2,6-difluoro-4-(4-hydroxytetrahydro-2H-pyran-4-yl)phenyl)-N-(4-((1R,3R,4R,5S)-3,4-dihydroxy-4,5-dimethylcyclohexyl)pyridin-3-yl)-5-fluoropicolinamide]",,6.49,,
"C[C@@H]1C[C@H](c2ccncc2NC(=O)c2nc(-c3c(F)cccc3F)c(F)cc2N)C[C@H](O)[C@]1(O)CF [Example 24, 3-amino-6-(2,6-difluorophenyl)-5-fluoro-N-(4-((1S,3S,4S,5R)-4-(fluoromethyl)-3,4-dihydroxy-5-methylcyclohexyl)pyridin-3-yl) picolinamide]",5.31,,7.66,6.10
"CC[C@]1(O)[C@H](N)C[C@H](c2ccncc2NC(=O)c2ccc(F)c(-c3c(F)cccc3F)n2)C[C@@H]1C [Example 11, N-(4-((1R,3R,4R,5S)-3-amino-4-ethyl-4-hydroxy-5-methylcyclohexyl)pyridin-3-yl)-6-(2,6-difluorophenyl)-5-fluoropicolinamide]",8.09,,9.89,8.84
"C[C@H]1C[C@@H](c2ccncc2NC(=O)c2nc(-c3cccc(OC(F)F)n3)ccc2N)C[C@@H](O)[C@]1(C)O [Example 123, 5-amino-6′-(difluoromethoxy)-N-(4-((1R,3R,4R,5S)-3,4-dihydroxy-4,5-dimethylcyclohexyl)pyridin-3-yl)-2,2′-bipyridine-6-carboxamide]",4.69,,7.45,6.34
"C[C@H]1C[C@@H](c2ccncc2NC(=O)c2nc(-c3c(F)cccc3F)c(F)cc2N)C[C@@H](O)[C@@]1(O)CF [Example 23, 3-amino-6-(2,6-difluorophenyl)-5-fluoro-N-(4-((1R,3R,4R,5S)-4-(fluoromethyl)-3,4-dihydroxy-5-methylcyclohexyl)pyridin-3-yl) picolinamide]",7.54,,9.24,8.00
"C[C@H]1C[C@@H](c2ccncc2NC(=O)c2nc(-c3cccc(OCC(F)(F)F)n3)ccc2N)C[C@@H](O)[C@]1(C)O [Example 124, 5-amino-N-(4-((1R,3R,4R,5S)-3,4-dihydroxy-4,5-dimethylcyclohexyl)pyridin-3-yl)-6′-(2,2,2-trifluoroethoxy)-2,2′-bipyridine-6-carboxamide]",< 4.60,,7.66,6.13
"C[C@@H]1C[C@H](c2ccncc2NC(=O)c2nc(-c3c(F)cccc3F)ccc2N)C[C@H](O)[C@]1(O)CF [Example 17, 3-amino-6-(2,6-difluorophenyl)-N-(4-((1S,3S,4S,5R)-4-(fluoromethyl)-3,4-dihydroxy-5-methylcyclohexyl)pyridin-3-yl) picolinamide]",5.33,,7.55,6.19

# Further molecules by rising pIC50 (Pim2 kinase), results first:
pIC50 (Pim2 kinase),pEC50 [1],pIC50 (Pim1 kinase),pIC50 (Pim3 kinase),SMILES
8.22,,10.10,8.98,"COc1cc(F)c(-c2nc(C(=O)Nc3cnccc3[C@H]3C[C@@H](N)[C@](C)(O)[C@@H](C)C3)ccc2F)c(F)c1 [Example 15, N-(4-((1R,3R,4R,5S)-3-amino-4-hydroxy-4,5-dimethylcyclohexyl)pyridin-3-yl)-6-(2,6-difluoro-4-methoxyphenyl)-5-fluoropicolinamide]"
8.24,7.08,,,"C[C@H]1C[C@@H](c2ccncc2NC(=O)c2ccc(F)c(-c3c(F)cc(C4COC4)cc3F)n2)C[C@@H](N)[C@]1(C)O [Example 63, N-(4-((1R,3R,4R,5S)-3-amino-4-hydroxy-4,5-dimethylcyclohexyl)pyridin-3-yl)-6-(2,6-difluoro-4-(oxetan-3-yl)phenyl)-5-fluoropicolinamide]"
8.35,6.39,10.52,9.03,"C[C@H]1C[C@@H](c2ccncc2NC(=O)c2ccc(F)c(-c3c(F)cc(C4=CCCC4)cc3F)n2)C[C@@H](N)[C@]1(C)O [Example 81, N-(4-((1R,3R,4R,5S)-3-amino-4-hydroxy-4,5-dimethylcyclohexyl)pyridin-3-yl)-6-(4-cyclopentenyl-2,6-difluorophenyl)-5-fluoropicolinamide]"
8.40,7.01,,,"CCOCc1cc(F)c(-c2nc(C(=O)Nc3cnccc3[C@H]3C[C@@H](N)[C@](C)(O)[C@@H](C)C3)ccc2F)c(F)c1 [Example 72, N-(4-((1R,3R,4R,5S)-3-amino-4-hydroxy-4,5-dimethylcyclohexyl)pyridin-3-yl)-6-(4-(ethoxymethyl)-2,6-difluorophenyl)-5-fluoropicolinamide]"
8.49,7.70,10.15,,"C[C@H]1C[C@@H](c2ccncc2NC(=O)c2ccc(F)c(-c3c(F)cc(CCO)cc3F)n2)C[C@@H](N)[C@]1(C)O [Example 1, N-(4-((1R,3R,4R,5S)-3-amino-4-hydroxy-4,5-dimethylcyclohexyl)pyridin-3-yl)-6-(2,6-difluoro-4-(2-hydroxyethyl)phenyl)-5-fluoropicolinamide]"
8.52,7.62,,,"C[C@H]1C[C@@H](c2ccncc2NC(=O)c2nc(-c3c(F)cccc3F)sc2N)C[C@@H](N)[C@]1(C)O [Example 68, 5-amino-N-(4-((1R,3R,4R,5S)-3-amino-4-hydroxy-4,5-dimethylcyclohexyl)pyridin-3-yl)-2-(2,6-difluorophenyl)thiazole-4-carboxamide]"
8.82,6.24,,,"C[C@H]1C[C@@H](c2ccncc2NC(=O)c2ccc(F)c(-c3c(F)cc(C4CCS(=O)(=O)CC4)cc3F)n2)C[C@@H](N)[C@]1(C)O [Example 119, N-(4-((1R,3R,4R,5S)-3-amino-4-hydroxy-4,5-dimethylcyclohexyl)pyridin-3-yl)-6-(4-(1,1-dioxidotetrahydro-2H-thiopyran-4-yl)-2,6-difluorophenyl)-5-fluoropicolinamide]"
8.86,6.59,10.70,,"CC(C)c1cc(F)c(-c2nc(C(=O)Nc3cnccc3[C@H]3C[C@@H](N)[C@](C)(O)[C@@H](C)C3)ccc2F)c(F)c1 [Example 117, N-(4-((1R,3R,4R,5S)-3-amino-4-hydroxy-4,5-dimethylcyclohexyl)pyridin-3-yl)-6-(2,6-difluoro-4-isopropylphenyl)-5-fluoropicolinamide]"

# Reference: US20120225061A1, “TETRASUBSTITUTED CYCLOHEXYL COMPOUNDS AS KINASE INHIBITORS” (priority 2011, published 2012)
